ChEMBL document CHEMBL3885861, “Open TG-GATES”

Species on record: Rattus norvegicus
Assay: Open TG-GATES - Regimen: Single
Assay type: toxicity, organism-based, Sprague-Dawley
Parameters: regimen Single, gender Male, age 6 weeks
Conditions: in vivo, po, 0 mg/kg, route gavage, dose level Control; for APTT / Bas / Eos / Fbg / Hb / Ht / Lym / MCH / MCHC / MCV / Mono / Neu / PT / Plat / RBC / Ret: tissue Blood; for KIDNEY_L / KIDNEY_R / KIDNEY_TOTAL: tissue Kidney; for LIVER: tissue Liver; for ALP / ALT / AST / BUN / CRE / Ca / Cl / DBIL / GLC / IP / K / LDH / Na / PL / RALB / TBIL / TC / TG / TP / gamma-GTP: tissue Plasma

SMILES: COc1ccc2[nH]c([S+]([O-])Cc3ncc(C)c(OC)c3C)nc2c1 (stereo not drawn) [OMEPRAZOLE]
- TERMINAL_BW (3 h): 218.5 g
- APTT (3 h): 20.5 s
- Bas (3 h): 0%
- Eos (3 h): 1%
- Fbg (3 h): 206.4 mg/dL
- Hb (3 h): 13 g/dL
- Ht (3 h): 38.5%
- Lym (3 h): 77.8%
- MCH (3 h): 21.4 pg
- MCHC (3 h): 33.9%
- MCV (3 h): 63.1 fL
- Mono (3 h): 2.4%
- Neu (3 h): 18.6%
- PT (3 h): 12.5 s
- Plat (3 h): 122.7 x10_4/uL
- RBC (3 h): 610.2 x10_4/ul
- Ret (3 h): 7.2%
- KIDNEY_L (3 h): 0.9 g
- KIDNEY_R (3 h): 0.9 g
- KIDNEY_TOTAL (3 h): 1.9 g
- LIVER (3 h): 9.9 g
- ALP (3 h): 855.8 IU/L
- ALT (3 h): 33.2 IU/L
- AST (3 h): 68.4 IU/L
- BUN (3 h): 12.6 mg/dL
- CRE (3 h): 0.4 mg/dL
- Ca (3 h): 10.8 mg/dL
- Cl (3 h): 100.6 meq/L
- DBIL (3 h): 0.064 mg/dL
- GLC (3 h): 191.8 mg/dL
- IP (3 h): 8.3 mg/dL
- K (3 h): 3.8 meq/L
- LDH (3 h): 171.2 IU/L
- Na (3 h): 140.4 meq/L
- PL (3 h): 130.8 mg/dL
- RALB (3 h): 3.1 g/dL
- TBIL (3 h): 0.1 mg/dL
- TC (3 h): 69.4 mg/dL
- TG (3 h): 59.4 mg/dL
- TP (3 h): 5.3 g/dL
- gamma-GTP (3 h): 1 IU/L
- TERMINAL_BW (6 h): 218.1 g
- APTT (6 h): 19.3 s
- Bas (6 h): 0%
- Eos (6 h): 0.8%
- Fbg (6 h): 220.4 mg/dL
- Hb (6 h): 13.6 g/dL
- Ht (6 h): 39.7%
- Lym (6 h): 72.4%
- MCH (6 h): 21.4 pg
- MCHC (6 h): 34.1%
- MCV (6 h): 62.7 fL
- Mono (6 h): 3.8%
- Neu (6 h): 22.2%
- PT (6 h): 12.6 s
- Plat (6 h): 123.4 x10_4/uL
- RBC (6 h): 634.2 x10_4/ul
- Ret (6 h): 7.1%
- KIDNEY_L (6 h): 1 g
- KIDNEY_R (6 h): 1 g
- KIDNEY_TOTAL (6 h): 1.9 g
- LIVER (6 h): 9.9 g
- ALP (6 h): 923.8 IU/L
- ALT (6 h): 32.6 IU/L
- AST (6 h): 66 IU/L
- BUN (6 h): 11 mg/dL
- CRE (6 h): 0.3 mg/dL
- Ca (6 h): 10.7 mg/dL
- Cl (6 h): 100.8 meq/L
- DBIL (6 h): 0.07 mg/dL
- GLC (6 h): 201 mg/dL
- IP (6 h): 8.8 mg/dL
- K (6 h): 3.8 meq/L
- LDH (6 h): 181.6 IU/L
- Na (6 h): 140 meq/L
- PL (6 h): 141.4 mg/dL
- RALB (6 h): 3.3 g/dL
- TBIL (6 h): 0.1 mg/dL
- TC (6 h): 73.4 mg/dL
- TG (6 h): 81.2 mg/dL
- TP (6 h): 5.4 g/dL
- gamma-GTP (6 h): 1.8 IU/L
- TERMINAL_BW (9 h): 218.2 g
- APTT (9 h): 20.9 s
- Bas (9 h): 0%
- Eos (9 h): 1%
- Fbg (9 h): 212.8 mg/dL
- Hb (9 h): 13.3 g/dL
- Ht (9 h): 38.6%
- Lym (9 h): 78%
- MCH (9 h): 21.5 pg
- MCHC (9 h): 34.3%
- MCV (9 h): 62.6 fL
- Mono (9 h): 3%
- Neu (9 h): 17.4%
- PT (9 h): 13.1 s
- Plat (9 h): 119.3 x10_4/uL
- RBC (9 h): 615.6 x10_4/ul
- Ret (9 h): 7.4%
- KIDNEY_L (9 h): 0.9 g
- KIDNEY_R (9 h): 1 g
- KIDNEY_TOTAL (9 h): 1.9 g
- LIVER (9 h): 9.1 g
- ALP (9 h): 764.2 IU/L
- ALT (9 h): 28 IU/L
- AST (9 h): 59.2 IU/L
- BUN (9 h): 11.4 mg/dL
- CRE (9 h): 0.3 mg/dL
- Ca (9 h): 10.7 mg/dL
- Cl (9 h): 101 meq/L
- DBIL (9 h): 0.06 mg/dL
- GLC (9 h): 188.4 mg/dL
- IP (9 h): 9.4 mg/dL
- K (9 h): 3.9 meq/L
- LDH (9 h): 175.4 IU/L
- Na (9 h): 140.4 meq/L
- PL (9 h): 122.2 mg/dL
- RALB (9 h): 3.3 g/dL
- TBIL (9 h): 0.1 mg/dL
- TC (9 h): 66.4 mg/dL
- TG (9 h): 54.6 mg/dL
- TP (9 h): 5.5 g/dL
- gamma-GTP (9 h): 1.4 IU/L
- TERMINAL_BW (24 h): 234.9 g
- APTT (24 h): 20.7 s
- Bas (24 h): 0%
- Eos (24 h): 1%
- Fbg (24 h): 229.6 mg/dL
- Hb (24 h): 13.2 g/dL
- Ht (24 h): 38.7%
- Lym (24 h): 78.6%
- MCH (24 h): 21.7 pg
- MCHC (24 h): 34.1%
- MCV (24 h): 63.6 fL
- Mono (24 h): 2.6%
- Neu (24 h): 17.2%
- PT (24 h): 12.1 s
- Plat (24 h): 118.9 x10_4/uL
- RBC (24 h): 608 x10_4/ul
- Ret (24 h): 6.6%
- KIDNEY_L (24 h): 1 g
- KIDNEY_R (24 h): 1 g
- KIDNEY_TOTAL (24 h): 2 g
- LIVER (24 h): 11.8 g
- ALP (24 h): 979.4 IU/L
- ALT (24 h): 35.4 IU/L
- AST (24 h): 62.2 IU/L
- BUN (24 h): 17.4 mg/dL
- CRE (24 h): 0.4 mg/dL
- Ca (24 h): 11.1 mg/dL
- Cl (24 h): 101.2 meq/L
- DBIL (24 h): 0.094 mg/dL
- GLC (24 h): 216 mg/dL
- IP (24 h): 7.7 mg/dL
- K (24 h): 4.2 meq/L
- LDH (24 h): 192 IU/L
- Na (24 h): 140.6 meq/L
- PL (24 h): 151.6 mg/dL
- RALB (24 h): 3.4 g/dL
- TBIL (24 h): 0.1 mg/dL
- TC (24 h): 79.6 mg/dL
- TG (24 h): 109 mg/dL
- TP (24 h): 5.5 g/dL
